Reference: PubChem BioAssay (NCI)
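How tested: cells in 96-well plates exposed to compound for 48 hours at five concentrations. The concentration for full growth arrest is given as TGI.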

Key:
Assay in all cases: NCI-60 cell line screen, 48 h
[1] = system: HL-60(TB) leukemia
[2] = system: HS 578T breast
[3] = system: K-562 leukemia
[4] = system: LOX IMVI melanoma
[5] = system: M14 melanoma
[6] = system: MALME-3M melanoma
[7] = system: MDA-MB-435
[8] = system: MOLT-4 leukemia
[9] = system: NCI-H23 lung
[10] = system: NCI-H522 lung
[11] = system: SF-268 CNS
[12] = system: SF-295 CNS
[13] = system: SW-620 colon
[14] = system: U251 CNS
[15] = system: UO-31 renal
[16] = system: MCF7 breast

Row | SMILES | TGI [1] | TGI [2] | TGI [3] | TGI [4] | TGI [5] | TGI [6] | TGI [7] | TGI [8] | TGI [9] | TGI [10] | TGI [11] | TGI [12] | TGI [13] | TGI [14] | TGI [15] | TGI [16]
1 | Cc1cc2c(cc1Cl)SC(NNC1=NCCN1)=NS2(=O)=O | > 10 µM | > 10 µM | > 10 µM | > 10 µM | > 10 µM | > 10 µM | > 10 µM | > 10 µM | > 10 µM | > 10 µM | > 10 µM | > 10 µM | > 10 µM | > 10 µM | > 10 µM | 
2 | COC(=O)Cn1c(=O)oc2nc(-c3ccccc3)cc(C(F)(F)F)c21 |  |  |  |  | > 100 µM |  | > 100 µM | 71.3 µM | > 100 µM | > 100 µM | > 100 µM | > 100 µM | > 100 µM | > 100 µM | > 100 µM | > 100 µM
3 | CS(=O)(=O)O[C@H]1[C@H](O)c2ccccc2[C@@H]1N=[N+]=[N-] | > 100 µM |  | > 100 µM | > 100 µM | > 100 µM | > 100 µM | > 100 µM | > 100 µM | > 100 µM | > 100 µM |  | > 100 µM | > 100 µM | > 100 µM | > 100 µM | > 100 µM
4 | COc1ccc2c(c1)[n+]([O-])c(/C(C)=N/NC(=O)c1ccccc1O)c(C)[n+]2[O-] | > 100 µM |  | > 100 µM | > 100 µM | > 100 µM | > 100 µM |  | > 100 µM | > 100 µM | > 100 µM | > 100 µM | > 100 µM | > 100 µM | > 100 µM | > 100 µM | 
5 | O=C(NCCCN(CCCCN(CCCNC(=O)c1cc(S(=O)(=O)O)cc(O)c1O)C(=O)c1cc(S(=O)(=O)O)cc(O)c1O)C(=O)c1cc(S(=O)(=O)O)cc(O)c1O)c1cc(S(=O)(=O)O)cc(O)c1O | > 100 µM | > 100 µM | > 100 µM | > 100 µM |  | > 100 µM | > 100 µM |  | > 100 µM | > 100 µM | > 100 µM |  | > 100 µM | > 100 µM | > 100 µM | 
6 | CC(C)OP(=O)(OC(C)C)C(=NCCN=C(NNc1ccccc1[N+](=O)[O-])P(=O)(OC(C)C)OC(C)C)NNc1ccccc1[N+](=O)[O-] | 74.5 µM |  | > 100 µM | > 100 µM | > 100 µM | 54.5 µM |  | > 100 µM | > 100 µM | > 100 µM | > 100 µM |  | > 100 µM | 83.4 µM | 71.5 µM | 
7 | Cc1ccc(Sc2ccccc2N)cc1 | 49.6 µM |  | > 100 µM | > 100 µM | > 100 µM | > 100 µM |  | 58.4 µM | 93.3 µM | 38.1 µM | > 100 µM | > 100 µM | > 100 µM | > 100 µM | 31.5 µM | 
8 | O=C(O)CCN(CCCN(CCC(=O)O)CCC(=O)O)CCC(=O)O | > 100 µM |  | > 100 µM | > 100 µM | > 100 µM | > 100 µM |  | > 100 µM | > 100 µM | > 100 µM | > 100 µM | > 100 µM | > 100 µM | > 100 µM |  | 
9 | CN(/N=C\c1ccnc2ccccc12)c1ccccc1 | 39.2 µM |  | 51.4 µM | 32.3 µM | 38.2 µM | 52.8 µM |  | > 100 µM | 48.6 µM | 41.9 µM | > 100 µM | 71.5 µM | 51.4 µM | 84.9 µM | 54.4 µM | 
10 | O=C(Cc1nc2ccc([N+](=O)[O-])cc2[nH]c1=O)C(=O)Nc1ccccc1[N+](=O)[O-] | > 100 µM |  | > 100 µM | > 100 µM | > 100 µM | > 100 µM |  | > 100 µM | > 100 µM | > 100 µM | > 100 µM | > 100 µM | > 100 µM |  | > 100 µM | 
11 | O=C(O)c1ccc([C@@H]2C(=O)N(O)[C@@H]3C=CC[C@@H]32)cc1 | > 100 µM |  | > 100 µM | > 100 µM | > 100 µM | > 100 µM |  | > 100 µM | > 100 µM | > 100 µM | > 100 µM | > 100 µM | > 100 µM |  | > 100 µM | 
12 | CCOC(=O)C(NC(=O)CC)(Nc1ccc(F)cc1F)C(F)(F)F (centres undefined) | > 100 µM | > 100 µM | > 100 µM | > 100 µM | > 100 µM |  | > 100 µM | > 100 µM | > 100 µM |  | > 100 µM |  | > 100 µM | > 100 µM | > 100 µM | 
13 | CC(=O)NNc1nc(C)c(C(=O)/C=C/c2ccc(Cl)c(Cl)c2)s1 | > 100 µM |  | > 100 µM | > 100 µM |  | > 100 µM |  | > 100 µM | > 100 µM | > 100 µM | > 100 µM | > 100 µM | > 100 µM | > 100 µM | > 100 µM | 
14 | CCN(CC)Cc1cc(Nc2ccnc3ccc4nn(C)nc4c23)ccc1O | > 100 µM |  | > 100 µM | 21.5 µM | 27.9 µM | 31.3 µM |  | > 100 µM | 29.9 µM | 21.6 µM | 36.4 µM | 29.1 µM | 28.2 µM | 45.5 µM | 54 µM | 
15 | Cc1ccccc1Nc1nc(NNC(=O)Cc2ccccc2)nc(NNC(=O)c2ccncc2)n1 | > 10 µM | > 10 µM | > 10 µM | > 10 µM | > 10 µM | > 10 µM |  | > 10 µM |  |  | > 10 µM |  |  | > 10 µM | > 10 µM | > 10 µM
16 | COc1cc(C2c3cc4c(cc3OC(NCCO)C2C)OCO4)cc(OC)c1O (centres undefined) |  |  |  |  | > 100 µM | > 100 µM | 6.34 µM |  | > 100 µM |  | > 100 µM | > 100 µM | > 100 µM | 87.8 µM | > 100 µM | > 100 µM
17 | CC(C)(C)[Si](C)(C)OCC1OC(n2ccc(=O)[nH]c2=O)C(O[Si](C)(C)C(C)(C)C)[C@]12O[C@@H]2CO (some centres undefined) |  |  | > 100 µM | 40.9 µM | 43.2 µM |  | 35.3 µM | 46.3 µM | 30.2 µM | 29.7 µM | 42.5 µM | 23.7 µM | 58.7 µM | 42.6 µM | 21.7 µM | 38.2 µM
18 | C#CCOCn1cc(C)c(=O)[nH]c1=O | > 100 µM | > 100 µM | > 100 µM | > 100 µM | > 100 µM | > 100 µM |  | > 100 µM | > 100 µM |  | > 100 µM | > 100 µM | > 100 µM | > 100 µM | > 100 µM | > 100 µM
19 | C/C=C\C(CC(=O)OC)CC(=O)N(CCC1CN(S(=O)(=O)C(F)(F)F)c2ccccc21)Cc1ccc(OC)cc1OC (centres undefined) |  |  | > 100 µM | > 100 µM | > 100 µM | > 100 µM | > 100 µM | > 100 µM | > 100 µM | > 100 µM | > 100 µM | > 100 µM | > 100 µM | > 100 µM | > 100 µM | > 100 µM
20 | NC(=O)CCC(NC(=O)c1c2ccccc2nc2ccccc12)C(=O)O (centres undefined) |  |  | > 100 µM | > 100 µM | > 100 µM | > 100 µM | > 100 µM | > 100 µM | > 100 µM | > 100 µM | > 100 µM | > 100 µM | > 100 µM | > 100 µM | > 100 µM | > 100 µM
21 | O=C1C(c2ccccc2)=C(c2ccccc2)C(c2ccc(Sc3ccc(C4=C(c5ccccc5)C(=O)C(c5ccccc5)=C4c4ccccc4)cc3)cc2)=C1c1ccccc1 | > 100 µM |  | > 100 µM | > 100 µM | > 100 µM | > 100 µM |  | > 100 µM | > 100 µM | > 100 µM | > 100 µM | > 100 µM | > 100 µM | > 100 µM | > 100 µM | 
22 | NC(CCCCNCc1ccccc1)C(=O)O (centres undefined) | > 100 µM |  | > 100 µM | > 100 µM | > 100 µM | > 100 µM |  | > 100 µM | > 100 µM | > 100 µM | > 100 µM | > 100 µM | > 100 µM | > 100 µM | > 100 µM | 
23 | c1ccc2c(CNCCCCCCCCNCc3cccc4ccccc34)cccc2c1 | 4.64 µM |  | 3.73 µM | 2.52 µM | 3.18 µM | 3.41 µM |  | 9.64 µM | 14.8 µM | 3.24 µM | 21.4 µM | 3.32 µM | 3.29 µM | 3.13 µM | 3.45 µM | 
24 | Cc1cc(C)nc(NS(=O)(=O)c2ccc(NC(=O)NC(F)(F)F)cc2)n1 | > 100 µM | > 100 µM | > 100 µM | > 100 µM | > 100 µM |  | > 100 µM | > 100 µM | > 100 µM |  | > 100 µM |  | > 100 µM | > 100 µM | > 100 µM | 
25 | COc1cc(CNc2cnc3ccc(N)cc3n2)cc(OC)c1OC | > 100 µM |  | > 100 µM | > 100 µM | > 100 µM | > 100 µM |  | > 100 µM | > 100 µM | > 100 µM | > 100 µM | > 100 µM | > 100 µM | > 100 µM | > 100 µM | 
26 | COC(=O)C(=O)C(/C(=N/N)C(=O)Nc1ccccc1C(N)=O)c1nc2ccc([N+](=O)[O-])cc2[nH]c1=O (centres undefined) | > 100 µM |  | > 100 µM | > 100 µM | > 100 µM | > 100 µM |  | > 100 µM | > 100 µM | > 100 µM | > 100 µM | > 100 µM | > 100 µM | > 100 µM | > 100 µM | 
